Test results from ChEMBL document CHEMBL1201862, “PubChem BioAssay data set” (2004).
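In this assay, cells in 96-well plates receive the compound at five concentrations for 48 hours. Endpoints are linearly interpolated between the surrounding concentrations. GI50 is the concentration that inhibits growth by half.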 Calls of active or inactive are those of the source. Rule as the data show it: active = GI50 up to about 1.1 µM and inactive = higher.

What was measured:
Assay in all cases: growth of human tumour cells (NCI), 48 h
M14 = tested on: M14
DLD-1 = tested on: DLD-1
LXFL 529 = tested on: LXFL 529
RXF 631 = tested on: RXF 631
HOP-62 = tested on: HOP-62
UACC-257 = tested on: UACC-257
OVCAR-4 = tested on: OVCAR-4
DMS-273 = tested on: DMS-273
HCT-116 = tested on: HCT-116
SR = tested on: SR
HCC 2998 = tested on: HCC 2998
M19-MEL = tested on: M19-MEL
MCF7 = tested on: MCF7
A498 = tested on: A498
HOP-92 = tested on: HOP-92
UO-31 = tested on: UO-31
NCI/ADR-RES = tested on: NCI/ADR-RES
SK-MEL-28 = tested on: SK-MEL-28
KM12 = tested on: KM12
DMS-114 = tested on: DMS-114

Measured: GI50

CCOC(=O)C1CCn2c(nc3c(=O)n(C)c(=O)n(C)c32)S1 (stereo not given)
inactive: M14 > 100 µM | DLD-1 > 100 µM | LXFL 529 > 100 µM | RXF 631 > 100 µM | HOP-62 > 100 µM | UACC-257 > 100 µM | OVCAR-4 > 100 µM | DMS-273 > 100 µM | HCT-116 > 100 µM | SR > 100 µM

O=C(CC1=NCCN1)c1ccccc1
inactive: HCC 2998 > 750 µM | M19-MEL > 750 µM | MCF7 > 750 µM | A498 62.8 µM | HOP-92 > 319 µM | UO-31 721 µM | NCI/ADR-RES > 750 µM | DLD-1 > 750 µM | HOP-62 > 605 µM | SK-MEL-28 > 750 µM | KM12 > 750 µM | UACC-257 > 750 µM | DMS-114 > 750 µM | OVCAR-4 > 750 µM | DMS-273 > 750 µM | HCT-116 > 750 µM

COc1ccc(/C(Cl)=C(\C=O)c2ccc(OC)c(OC)c2)cc1
inactive: M14 > 100 µM | M19-MEL > 100 µM | A498 35.9 µM | HOP-92 20.8 µM | UO-31 40.5 µM | LXFL 529 30.4 µM | RXF 631 54.3 µM | SK-MEL-28 > 100 µM | DMS-114 25.9 µM
